From patent US20170349879A1, “METHOD FOR CULTURING NORMAL CELLS AND ODONTOMA CELLS CONTAINED IN ORAL TISSUE” (CHIBA UNIVERSITY, priority 2014, published 2017)

Experiments:
caspase-3 = assay: Western blotting of caspase-3 (apoptosis) in salivary gland cells; assay type: cell-based, human; conditions: salivary gland cells in Rock inhibitor-containing medium; relative to α-tubulin; FIG. 6A
Procedure: Primary cultured salivary gland cells were cultured in a medium containing a Rock inhibitor and analyzed for their proliferation by Western blotting of proliferating cell nuclear antigen (PCNA: Santa Cruz) and for their apoptosis by Western blotting of caspase-3 (CST). For analysis of their immortalization, the expression of telomerase reverse transcriptase (TERT) was analyzed by quantitative RT-PCR assay.
The protein levels of PCNA and caspase-3 were measured by Western blotting. In addition, α-tubulin was used as an endogenous control.
(i) A protein extract was electrophoresed on a 4% to 12% polyacrylamide gel (Invitrogen).
(ii) The proteins were transferred onto a nitrocellulose membrane (Invitrogen).
(iii) The membrane was washed with Tris-buffered saline containing 0.1% Tween-20 (WaKo) (TBST), and then blocked with Blocking One (Nacalai Tesque, Inc., Japan) for 30 minutes. […]
(vi) The membrane was reacted at room temperature for 1 hour with horseradish peroxidase (HRP)-conjugated secondary antibody (Promega) and then treated with Super Signal West Pico Chemiluminescent substrate (Thermo) to develop signals for visualization purposes. The intensity of signals was quantified with a CS analyzer (ATTO) and expressed as a relative value in comparison with the protein level of α-tubulin measured as a control.

[1] = test system: vascular endothelial cells; assay: Cell culture of vascular endothelial cells using a Rho kinase inhibitor (cell morphology); assay type: cell-based, human; conditions: inhibitor-containing medium (10 μM, EGM-2MV); passage 8 with inhibitor vs passage 0 without; FIG. 15
Procedure: Vascular Endothelial Cells (i) Patient-derived cells for use as a source material were taken in a required amount as described above. (ii) The cells were washed three times with phosphate-buffered physiological saline (PBS) (supplemented with 10 units/ml of penicillin and 100 μg/ml of streptomycin: Sigma-Aldrich). (iii) The cells were cut into small pieces with sterilized iris scissors and a surgical knife (No. 11). (iv) The cells were added to collagenase (032-10534: Wako) and shaken at 37° C. for 60 minutes. (v) The cells were diluted with an equal volume of fetal bovine serum (Nichirei Bioscience Inc., Japan) and centrifuged (at 1000 rpm for 10 minutes), and then centrifuged (at 1000 rpm for 5 minutes) three times with PBS, followed by addition of MACS buffer and centrifugation (at 1000 rpm for 5 minutes). (vi) Magnetic beads (Dynabeads CD31 Endotherial cell, 11155D: Invitrogen) were used to separate the cells. (vii) The cells were mixed with EGM-2MV (Lonza) (supplemented with 20% fetal bovine serum, 10 units/ml of penicillin, 100 μg/ml of streptomycin, and 10 μM of the Rock kinase inhibitor) and then seeded into fibronectin-coated cell culture dishes (IWAKI). (viii) The cells were washed with PBS once every three days to replace the above medium. (ix) The cultured cells were subcultured at 80% confluency. […]

CC(N)[C@H]1CC[C@H](C(=O)Nc2ccncc2)CC1 (stereo partly drawn) [Rock inhibitor, (R)-(+)-trans-N-(4-pyridyl)-4-(1-aminoethyl)-cyclohexanecarboxamide]
caspase-3 expression (caspase-3): no difference was observed
cell morphology of vascular endothelial cells on repeated subculture [1]: maintain their cell morphology even when repeatedly subcultured
